Reference: patent publication US7332501B2, “Indol-3-yl-carbonyl-spiro-piperidine derivatives as V1a receptor antagonists” (Hoffmann-La Roche Inc., priority 2005, dated 2008)
Where a name gives a salt, the structure may show the parent alone.

Biological target: T1, human V1a receptor (Homo sapiens, UniProt P37288)
T1 construct: expressed in transfected cells; host or cells: HEK293 cells, transiently transfected; cell membranes
Test: human V1a receptor binding (3H-Vasopressin SPA, HEK293 membranes)
Details: displacement of 4 nM 3H-Vasopressin, membranes of HEK293 cells transiently transfected with human V1a receptor; Ki from IC50 by Cheng-Prussoff
How it was run: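 Transiently transfected HEK293 membranes on yttrium silicate SPA beads in Tris binding buffer (120 mM NaCl, 5 mM KCl, 2 mM CaCl2, 10 mM MgCl2). 3H-vasopressin added as 4 nM working solution; excess cold vasopressin set non-specific binding. 1 h at room temperature, then counting; Ki from fitted IC50 via Cheng-Prusoff.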

T1 sequence (P37288 whole entry): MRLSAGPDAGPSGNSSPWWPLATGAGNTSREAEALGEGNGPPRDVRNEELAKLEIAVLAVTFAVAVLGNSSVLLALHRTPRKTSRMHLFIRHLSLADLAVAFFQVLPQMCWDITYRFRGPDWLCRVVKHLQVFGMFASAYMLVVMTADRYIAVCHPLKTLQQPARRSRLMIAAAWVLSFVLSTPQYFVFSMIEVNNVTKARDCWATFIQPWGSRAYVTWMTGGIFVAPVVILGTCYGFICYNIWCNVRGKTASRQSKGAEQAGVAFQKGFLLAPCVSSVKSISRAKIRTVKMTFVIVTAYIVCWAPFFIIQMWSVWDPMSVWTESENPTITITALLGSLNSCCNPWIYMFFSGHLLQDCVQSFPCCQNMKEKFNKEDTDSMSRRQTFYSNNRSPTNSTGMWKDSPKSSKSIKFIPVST

Row | SMILES | Ki
1 | O=C(c1cn(Cc2cccnc2)c2cc(Cl)ccc12)N1CCC2(CC1)OCc1ccccc12 [Example 230, 1′-{[6-Chloro-1-(pyridin-3-ylmethyl)-1H-indol-3-yl]carbonyl}-3H-spiro[2-benzofuran-1,4′-piperidine]] | 1.7 nM
2 | O=C(c1cn(Cc2cncnc2)c2cc(Cl)ccc12)N1CCC2(CC1)OCc1ccccc12 [Example 235] | 1.4 nM
3 | Cc1[nH]c2ccccc2c1C(=O)N1CCC2(CC1)OCc1ccccc12 [Example 43, 1′-[(2-methyl-1H-indol-3-yl)carbonyl]-3H-spiro[2-benzofuran-1,4′-piperidine]] | 11 nM
4 | Cc1cc2c(C(=O)N3CCC4(CC3)OC(=O)c3ccccc34)cn(CC(=O)N(C)C)c2cc1Cl [Example 120, 2-{6-Chloro-5-methyl-3-[(3-oxo-1′H,3H-spiro[2-benzofuran-1,4′-piperidin]-1′-yl)carbonyl]-1H-indol-1-yl}-N,N-dimethylacetamide] | 2.7 nM
5 | N#CCn1cc(C(=O)N2CCC3(CC2)OC(=O)c2ccccc23)c2ccc(Cl)cc21 [Example 37, {6-chloro-3-[(3-oxo-1′H,3H-spiro[2-benzofuran-1,4′-piperidin]-1′-yl)carbonyl]-1H-indol-1-yl}acetonitrile] | 6.3 nM
6 | Cn1cncc1Cn1cc(C(=O)N2CCC3(CC2)OC(=O)c2cc(F)ccc23)c2ccc(Cl)cc21 [Example 183, 1′-({6-Chloro-1-[(1-methyl-1H-imidazol-5-yl)methyl]-1H-indol-3-yl}carbonyl)-5-fluoro-3H-spiro[2-benzofuran-1,4′-piperidin]-3-one] | 5.2 nM
7 | COCc1ncc(Cn2cc(C(=O)N3CCC4(CC3)OC(=O)c3cc(F)ccc34)c3ccc(Cl)cc32)c(N)n1 [Example 162, 1′-[(1-{[4-Amino-2-(methoxymethyl)pyrimidin-5-yl]methyl}-6-chloro-1H-indol-3-yl)carbonyl]-5-fluoro-3H-spiro[2-benzofuran-1,4′-piperidin]-3-one] | 65.3 nM
8 | O=C1OC2(CCN(C(=O)c3cn(C(=O)N4CCCCC4)c4cc(Cl)ccc34)CC2)c2ccccc21 [Example 108, 1′-{[6-Chloro-1-(piperidin-1-ylcarbonyl)-1H-indol-3-yl]carbonyl}-3H-spiro[2-benzofuran-1,4′-piperidin]-3-one] | 6.2 nM
9 | O=C(c1cn(CCN2CCCC2)c2cc(Cl)ccc12)N1CCC2(CC1)COc1ccccc12 [Example 82, 1′-{[6-chloro-1-(2-pyrrolidin-1-ylethyl)-1H-indol-3-yl]carbonyl}spiro[1-benzofuran-3,4′-piperidine]] | 12.9 nM
10 | O=C1OC2(CCN(C(=O)c3cn(Cc4cc(F)cc(F)c4)c4ccccc34)CC2)c2ccccc21 [Example 202, 1′-{[1-(3,5-Difluorobenzyl)-1H-indol-3-yl]carbonyl}-3H-spiro[2-benzofuran-1,4′-piperidin]-3-one] | 4.3 nM
11 | CNCCNC(=O)c1[nH]c2cc(Cl)ccc2c1C(=O)N1CCC2(CC1)OC(=O)c1cc(F)ccc12 [Example 194, 6-Chloro-3-[(5-fluoro-3-oxo-1′H,3H-spiro[2-benzofuran-1,4′-piperidin]-1′-yl)carbonyl]-N-[2-(methylamino)ethyl]-1H-indole-2-carboxamide hydrochloride] | 15.1 nM
12 | Cc1cc(C)cc(Cn2c(C)c(C(=O)N3CCC4(CC3)OCc3ccccc34)c3ccccc32)c1 [Example 49, 1′-{[1-(3,5-dimethylbenzyl)-2-methyl-1H-indol-3-yl]carbonyl}-3H-spiro[2-benzofuran-1,4′-piperidine]] | 2.4 nM
13 | COCC1(Cn2cc(C(=O)N3CCC4(CC3)OCc3ccccc34)c3ccc(Cl)cc32)CC1 [Example 244, 1′-[(6-Chloro-1-{[1-(methoxymethyl)cyclopropyl]methyl}-1H-indol-3-yl)carbonyl]-3H-spiro[2-benzofuran-1,4′-piperidine]] | 2.6 nM
14 | O=C1OC2(CCN(C(=O)c3cn(Cc4cccc(F)c4)c4cc(Cl)ccc34)CC2)c2ccc(Br)cc21 [Example 151, 5-Bromo-1′-{[6-chloro-1-(3-fluorobenzyl)-1H-indol-3-yl]carbonyl}-3H-spiro[2-benzofuran-1,4′-piperidin]-3-one] | 4.8 nM
15 | O=C1OC2(CCN(C(=O)c3cn(Cc4ccccn4)c4cc(Cl)ccc34)CC2)c2ccc(F)cc21 [Example 171, 1′-{[6-Chloro-1-(pyridin-2-ylmethyl)-1H-indol-3-yl]carbonyl}-5-fluoro-3H-spiro[2-benzofuran-1,4′-piperidin]-3-one] | 2.7 nM
16 | O=C1OC2(CCN(C(=O)c3cn(-c4ccccn4)c4cc(Cl)ccc34)CC2)c2ccc(F)cc21 [Example 160, 1-[(6-Chloro-1-pyridin-2-yl-1H-indol-3-yl)carbonyl]-5-fluoro-3H-spiro[2-benzofuran-1,4′-piperidin]-3-one] | 5 nM
17 | O=C1OC2(CCN(C(=O)c3cn(CC4(F)COC4)c4cc(Cl)ccc34)CC2)c2ccccc21 [Example 189, 1′-({6-Chloro-1-[(3-fluorooxetan-3-yl)methyl]-1H-indol-3-yl}carbonyl)-3H-spiro[2-benzofuran-1,4′-piperidin]-3-one] | 1.7 nM
18 | O=C(Cn1cc(C(=O)N2CCC3(CC2)OC(=O)c2ccccc23)c2ccc(Cl)cc21)c1cccc(F)c1 [Example 135, 1′-({6-Chloro-1-[2-(3-fluorophenyl)-2-oxoethyl]-1H-indol-3-yl}carbonyl)-3H-spiro[2-benzofuran-1,4′-piperidin]-3-one] | 1.8 nM

Row | SMILES | Ki
19 | O=C(c1cn(C(=O)c2ccccc2F)c2cc(Cl)ccc12)N1CCC2(CC1)OCc1ccccc12 [Example 215] | 8.6 nM
20 | Cc1c(C(=O)N2C[C@@H](C)[C@]3(OC(=O)c4ccccc43)[C@@H](C)C2)c2ccccc2n1Cc1ccccc1 [Example 281, (1R,3′R,5′S)-1′-[(1-Benzyl-2-methyl-1H-indol-3-yl)carbonyl]-3′,5′-dimethyl-3H-spiro[2-benzofuran-1,4′-piperidin]-3-one] | 19.1 nM
21 | O=C(Cn1cc(C(=O)N2CCC3(CC2)OCc2ccccc23)c2ccc(Cl)cc21)N1CCNCC1 [Example 211, 1′-{[6-Chloro-1-(2-oxo-2-piperazin-1-ylethyl)-1H-indol-3-yl]carbonyl}-3H-spiro[2-benzofuran-1,4′-piperidine]] | 0.8 nM
22 | CN(C)C(=O)Cn1cc(C(=O)N2CCC3(CC2)OC(=O)c2ccccc23)c2ccc(Cl)cc21 [Example 106, 2-{6-Chloro-3-[(3-oxo-1′H,3H-spiro[2-benzofuran-1,4′-piperidin]-1′-yl)carbonyl]-1H-indol-1-yl}-N,N-dimethylacetamide] | 0.4 nM
23 | CN(C)CCNC(=O)Cn1cc(C(=O)N2CCC3(CC2)OCc2ccccc23)c2ccc(Cl)cc21 [Example 249, 2-[6-Chloro-3-(1′H,3H-spiro[2-benzofuran-1,4′-piperidin]-1′-ylcarbonyl)-1H-indol-1-yl]-N-[2-(dimethylamino)ethyl]acetamide] | 2.4 nM
24 | O=C(c1cn(CC2CCNC2)c2cc(Cl)ccc12)N1CCC2(CC1)OCc1ccccc12 (centres unmarked) [Example 266, 1′-{[6-Chloro-1-(pyrrolidin-3-ylmethyl)-1H-indol-3-yl]carbonyl}-3H-spiro[2-benzofuran-1,4′-piperidine]] | 2.7 nM
25 | CC(=O)N(C)CCn1cc(C(=O)N2CCC3(CC2)OCc2ccccc23)c2ccc(Cl)cc21 [Example 272, N-{2-[6-Chloro-3-(1′H,3H-spiro[2-benzofuran-1,4′-piperidin]-1′-ylcarbonyl)-1H-indol-1-yl]ethyl}-N-methylacetamide] | 1.3 nM
26 | Cc1cc(Cn2cc(C(=O)N3CCC4(CC3)OCc3ccccc34)c3ccc(Cl)cc32)nn1C [Example 240] | 2 nM
27 | Cc1c(C(=O)N2CCC3(CC2)OC(=O)c2ccc(Cl)cc23)c2ccccc2n1Cc1ccccc1 [Example 10, 1′-[(1-benzyl-2-methyl-1H-indol-3-yl)carbonyl]-6-chloro-3H-spiro[2-benzofuran-1,4′-piperidin]-3-one] | 12.7 nM
28 | O=C(c1cn(CCC2CCOCC2)c2cc(Cl)ccc12)N1CCC2(CC1)OCc1ccccc12 [Example 246, 1′-({6-Chloro-1-[2-(tetrahydro-2H-pyran-4-yl)ethyl]-1H-indol-3-yl}carbonyl)-3H-spiro[2-benzofuran-1,4′-piperidine]] | 1.9 nM
29 | O=C(c1cn(Cc2ccncc2)c2cc(Cl)ccc12)N1CCC2(CC1)OCc1ccccc12 [Example 228] | 1.5 nM
30 | O=C1OC2(CCN(C(=O)c3cn(-c4cccc(F)c4)c4cc(Cl)ccc34)CC2)c2ccccc21 [Example 155, 1′-{[6-Chloro-1-(3-fluorophenyl)-1H-indol-3-yl]carbonyl}-3H-spiro[2-benzofuran-1,4′-piperidin]-3-one] | 5 nM
31 | Cc1c(C(=O)N2CCC3(CC2)OC(=O)c2c(F)cccc23)c2ccccc2n1Cc1ccccc1 [Example 11, 1′-[(1-benzyl-2-methyl-1H-indol-3-yl)carbonyl]-4-fluoro-3H-spiro[2-benzofuran-1,4′-piperidin]-3-one] | 11.2 nM
32 | N#CCCn1cc(C(=O)N2CCC3(CC2)OC(=O)c2ccccc23)c2ccc(Cl)cc21 [Example 35, 3-{6-chloro-3-[(3-oxo-1′H,3H-spiro[2-benzofuran-1,4′-piperidin]-1′-yl)carbonyl]-1H-indol-1-yl}propanenitrile] | 2.5 nM
33 | O=C(c1cn(Cc2ccccc2)c2ccccc12)N1CCC2(C=Cc3ccccc32)CC1 [Example 3, 1′-[(1-benzyl-1H-indol-3-yl)carbonyl]spiro[indene-1,4′-piperidine]] | 10.1 nM
34 | O=C(c1cn(CC2CNCCO2)c2cc(Cl)ccc12)N1CCC2(CC1)OCc1ccccc12 (centres unmarked) [Example 248, 1′-{[6-Chloro-1-(morpholin-2-ylmethyl)-1H-indol-3-yl]carbonyl}-3H-spiro[2-benzofuran-1,4′-piperidine]hydrochloride] | 1.5 nM
35 | CN(C)CCNC(=O)c1[nH]c2cc(Cl)ccc2c1C(=O)N1CCC2(CC1)OC(=O)c1cc(F)ccc12 [Example 26, 6-chloro-N-[2-(dimethylamino)ethyl]-3-[(5-fluoro-3-oxo-1′H,3H-spiro[2-benzofuran-1,4′-piperidin]-1′-yl)carbonyl]-1H-indole-2-carboxamide] | 39.4 nM
